Measured values published in the NIST ThermoML archive (doi:10.1016/j.fluid.2017.06.024).

Details: Liquid; for speed of sound: Frequency=3 MHz, Pulse-echo method; for mass density: Vibrating tube method

CC(C)OC(C)C [diisopropyl ether]
Details | mass density, 333.15 K [kg/m3] | mass density, 343.15 K [kg/m3] | mass density, 353.15 K [kg/m3] | mass density, 363.15 K [kg/m3] | mass density, 373.15 K [kg/m3] | mass density, 383.15 K [kg/m3] | mass density, 393.15 K [kg/m3] | speed of sound, 333.15 K [m/s] | speed of sound, 343.15 K [m/s] | speed of sound, 353.15 K [m/s]
10000 kPa | – | 686 | 676.2 | 666.1 | 655.9 | 645.3 | 634.8 | – | – | –
20000 kPa | – | 700 | 691.2 | 682.3 | 673.3 | 664 | 654.9 | – | 984.53 | 953.14
30000 kPa | – | 711.8 | 703.7 | 695.6 | 687.4 | 679 | 670.7 | – | – | –
40000 kPa | – | 722.2 | 714.6 | 707 | 699.4 | 691.8 | 684 | – | 1117.8 | 1090.7
50000 kPa | – | 731.4 | 724.2 | 717.1 | 709.9 | 702.8 | 695.4 | – | – | –
60000 kPa | – | 739.7 | 733 | 726.1 | 719.3 | 712.5 | 705.6 | – | 1226.4 | 1200.4
70000 kPa | – | 747.3 | 740.9 | 734.4 | 728 | 721.4 | 714.8 | – | – | –
80000 kPa | – | 754.4 | 748.2 | 742 | 735.7 | 729.5 | 722.9 | – | 1318.7 | 1294.6
90000 kPa | – | 761 | 755.1 | 749 | 743.1 | 737 | 730.8 | – | – | –
100000 kPa | 773.8 | 767.2 | 761.4 | 755.5 | 749.8 | 743.9 | 738 | 1423.5 | 1400.8 | 1378.4
110000 kPa | 779.4 | 773.2 | 767.3 | 761.7 | 756.2 | 750.4 | 744.6 | – | – | –
120000 kPa | 784.8 | 778.6 | 773 | 767.5 | 762.2 | 756.6 | 750.9 | – | – | –
130000 kPa | 789.9 | 784 | 778.4 | 773 | 767.8 | 762.4 | 756.8 | – | – | –
140000 kPa | 794.7 | 788.9 | 783.5 | 778.3 | 773.1 | 767.9 | 762.3 | – | – | –
